Laboratory results published in patent publication US20240148821A1, “PHARMACEUTICAL USE OF CYCLIC PEPTIDE COMPOUND” (CHUGAI SEIYAKU KABUSHIKI KAISHA, priority 2021, published 2024).
Numbered stars: 1 amine (or outer) side, 2 acyl side, 3 side chain; on linkers, the order of the positions; unused ones are H or OH. Bridge positions count the residues as written; N and C are the ends. Square brackets hold non-standard residues; d marks the D form. Peptide text beside a SMILES is read from it. * marks the point of attachment. hPhe(3,5-F2-4-CF3) = N[C@@H](CCc1cc(F)c(C(F)(F)F)c(F)c1)C(=O)O; hPhe(3-Cl-4-CF3) = N[C@@H](CCc1ccc(C(F)(F)F)c(Cl)c1)C(=O)O; hPhe(3-F,4-CF3) = N[C@@H](CCc1ccc(C(F)(F)F)c(F)c1)C(=O)O; NEtPhe(4-CF3) = CCN[C@@H](Cc1ccc(C(F)(F)F)cc1)C(=O)O; NMePhe(4-CF3) = CN[C@@H](Cc1ccc(C(F)(F)F)cc1)C(=O)O; NMedβ3hAla = C[C@H](CC(=O)[*:2])N(C)[*:1]; NMeGly(cPent) = CN[C@H](C(=O)O)C1CCCC1; Pro(4,4-F2) = O=C(O)[C@@H]1CC(F)(F)CN1; NMeCha = CN[C@@H](CC1CCCCC1)C(=O)O; Hyp = O=C(O)[C@@H]1C[C@@H](O)CN1; NMeChg = CN[C@H](C(=O)O)C1CCCCC1; N(CH2CH2)2CF2 = FC1(F)CCN(*)CC1; NMeD = CN[C@@H](CC(=O)O)C(=O)O; NMeL = CN[C@@H](CC(C)C)C(=O)O; NMeV = CN[C@H](C(=O)O)C(C)C; Trifluoroethyl = FC(F)(F)C*; NMeS = CN[C@@H](CO)C(=O)O; NMeA = CN[C@@H](C)C(=O)O; NMeAib = CNC(C)(C)C(=O)O; Piperidide = C1CCN(*)CC1; Ac5c = NC1(C(=O)O)CCCC1; Aze = O=C(O)[C@@H]1CCN1; Ac4c = NC1(C(=O)O)CCC1; Sar = CNCC(=O)O; Propyl = CCC*

What follows are compounds tested against protein-protein interaction between Kras and SOS1 (biotin-tagged human Kras loaded with GDP, His-tagged human SOS1) (Homo sapiens (Human), UniProt P01116, G12D) (assay: Protein-protein interaction inhibition between Kras and SOS1 (KrasG12D-SOS PPI) using AlphaScreen). Settings: AlphaScreen; biotin-tagged human Kras loaded with GDP, His-tagged human SOS1; read-out: KRAS G12D-SOS PPI IC50.
Assay type: biochemical
`CC[C@H](C)[C@@H]1NC(=O)[C@H](C)N(C)C(=O)C[C@@H](C)N(C)C(=O)[C@H](C(C)C)N(C)C(=O)C(C)(C)N(C)C(=O)[C@@H]2CCCN2C(=O)[C@H](CCc2ccc(C(F)(F)F)c(Cl)c2)NC(=O)CN(C)C(=O)[C@H](CC2CCCCC2)N(C)C(=O)[C@@H]2CCN2C(=O)[C@H](C)N(C)C1=O` [Compound 341] (cyclo([Aze][NMeCha][Sar][hPhe(3-Cl-4-CF3)]P[NMeAib][NMeV][NMedβ3hAla][NMeA]I[NMeA])) was tested, and the IC50 was 2.9 nM.
`CC[C@H](C)[C@@H]1NC(=O)[C@H](CC(C)C)N(C)C(=O)C[C@@H](C)N(C)C(=O)[C@H](C2CCCCC2)N(C)C(=O)C2(CCC2)NC(=O)[C@@H]2CC(F)(F)CN2C(=O)[C@H](CCc2ccc(C(F)(F)F)c(Cl)c2)NC(=O)CN(C)C(=O)[C@H](Cc2ccc(C(F)(F)F)cc2)N(CC)C(=O)[C@@H]2CCN2C(=O)[C@H](C)N(C)C1=O` [Compound 345] (cyclo([Ac4c][NMeChg][NMedβ3hAla][NMeL]I[NMeA][Aze][NEtPhe(4-CF3)][Sar][hPhe(3-Cl-4-CF3)][Pro(4,4-F2)])) gave an IC50 of 58 nM.
For `CC[C@H](C)[C@@H]1NC(=O)[C@H](CC(C)C)N(C)C(=O)C[C@@H](C)N(C)C(=O)[C@H](C2CCCCC2)N(C)C(=O)C2(CCCC2)NC(=O)[C@@H]2CCCN2C(=O)[C@H](CCc2ccc(C(F)(F)F)c(Cl)c2)NC(=O)CN(C)C(=O)[C@H](Cc2ccc(C(F)(F)F)cc2)N(C)C(=O)[C@@H]2CCN2C(=O)[C@H](C)N(C)C1=O` [Compound 348] (cyclo([Ac5c][NMeChg][NMedβ3hAla][NMeL]I[NMeA][Aze][NMePhe(4-CF3)][Sar][hPhe(3-Cl-4-CF3)]P)), the IC50 was 6 nM.
`CC[C@H](C)[C@@H]1NC(=O)[C@H](CC(C)C)N(C)C(=O)C[C@@H](C)N(C)C(=O)[C@H](C(C)C)N(C)C(=O)C2(CCCC2)NC(=O)[C@H](CC(=O)N2CCC(F)(F)CC2)N(C)C(=O)[C@H](CCc2ccc(C(F)(F)F)c(Cl)c2)NC(=O)CN(C)C(=O)[C@H](CC2CCCCC2)N(C)C(=O)CN(C)C(=O)CN(C)C1=O` [Compound 350] (cyclo([Ac5c][NMeV][NMedβ3hAla][NMeL]I[Sar][Sar][NMeCha][Sar][hPhe(3-Cl-4-CF3)][NMeD](N(CH2CH2)2CF2))) showed an IC50 of 64 nM.
Compound `CCO[C@@H]1C[C@H]2C(=O)NC3(CCC3)C(=O)N(C)[C@@H](C3CCCCC3)C(=O)N(C)[C@H](C)CC(=O)N(C)[C@@H](CC(C)C)C(=O)N[C@@H]([C@@H](C)CC)C(=O)N(C)[C@@H](C)C(=O)N3CC[C@H]3C(=O)N(C)[C@@H](Cc3ccc(C(F)(F)F)cc3)C(=O)N(C)CC(=O)N[C@@H](CCc3cc(F)c(C(F)(F)F)c(F)c3)C(=O)N2C1` [Compound 365] (cyclo([Ac4c][NMeChg][NMedβ3hAla][NMeL]I[NMeA][Aze][NMePhe(4-CF3)][Sar][hPhe(3,5-F2-4-CF3)][Hyp](Et))) has an IC50 of 38 nM.
Work on `CCCOC[C@H]1C(=O)N(C)CC(=O)N[C@@H](CCc2ccc(C(F)(F)F)c(Cl)c2)C(=O)N2CCC[C@H]2C(=O)NC2(CCCC2)C(=O)N(C)[C@@H](C2CCCC2)C(=O)N(C)[C@H](C)CC(=O)N(C)[C@@H](CC(C)C)C(=O)N[C@@H]([C@@H](C)CC)C(=O)N(C)[C@@H](C)C(=O)N2CC[C@H]2C(=O)N1C` [Compound 366] (cyclo([Ac5c][NMeGly(cPent)][NMedβ3hAla][NMeL]I[NMeA][Aze][NMeS](Propyl)[Sar][hPhe(3-Cl-4-CF3)]P)) yielded an IC50 of 4 nM.
Work on `CC[C@H](C)[C@@H]1NC(=O)[C@H](CC(C)C)N(C)C(=O)C[C@@H](C)N(C)C(=O)[C@H](C2CCCCC2)N(C)C(=O)C2(CCC2)NC(=O)[C@@H]2CC(F)(F)CN2C(=O)[C@H](CCc2cc(F)c(C(F)(F)F)c(F)c2)NC(=O)CN(C)C(=O)[C@H](Cc2ccc(C(F)(F)F)cc2)N(CC)C(=O)[C@@H]2CCN2C(=O)[C@H](C)N(C)C1=O` [Compound 377] (cyclo([Ac4c][NMeChg][NMedβ3hAla][NMeL]I[NMeA][Aze][NEtPhe(4-CF3)][Sar][hPhe(3,5-F2-4-CF3)][Pro(4,4-F2)])) yielded an IC50 of 24 nM.
In the case of `CC[C@H](C)[C@@H]1NC(=O)[C@H](CC(C)C)N(C)C(=O)C[C@@H](C)N(C)C(=O)[C@H](C2CCCC2)N(C)C(=O)C2(CCCC2)NC(=O)[C@@H]2CCCN2C(=O)[C@H](CCc2ccc(C(F)(F)F)c(F)c2)NC(=O)CN(C)C(=O)[C@H](C2CCCC2)N(C)C(=O)[C@@H]2CCN2C(=O)[C@H](C)N(C)C1=O` [Compound 386] (cyclo([Ac5c][NMeGly(cPent)][NMedβ3hAla][NMeL]I[NMeA][Aze][NMeGly(cPent)][Sar][hPhe(3-F,4-CF3)]P)), the IC50 is reported as 10 nM.
`CC[C@H](C)[C@@H]1NC(=O)[C@H](COCC(F)(F)F)N(C)C(=O)C[C@@H](C(=O)N2CCCCC2)N(C)C(=O)[C@H](C(C)C)N(C)C(=O)C2(CCCC2)NC(=O)[C@@H]2CCCN2C(=O)[C@H](CCc2ccc(C(F)(F)F)c(Cl)c2)NC(=O)CN(C)C(=O)[C@H](CC2CCCCC2)N(C)C(=O)[C@@H]2CCN2C(=O)[C@H](C)N(C)C1=O` [Compound 387] ([NMeS](Trifluoroethyl)I[NMeA][Aze][NMeCha][Sar][hPhe(3-Cl-4-CF3)]P[Ac5c][NMeV][NMeD]-Piperidide; lactam N-11) gave an IC50 of 4.2 nM.
